The values below come from patent US11999727B2 (Tango Therapeutics, Inc., priority 2020, dated 2024).

SMILES strings stand for the structures. Where two headings read alike, the source gives them in different places. Where only a bound is given, the exact number is not on record here.

Test [1] deals with T1, PRMT5 (Homo sapiens, UniProt O14744).
T1 construct: purchased Viva (custom protein)
Put plainly: PRMT5 biochemical IC50 assay with SAM as cofactor. As to conditions: PRMT5, SAM as cofactor; read-out: SAM IC50.

Test [2] deals with T1, PRMT5. Briefly: PRMT5 biochemical IC50 assay with no cofactor. As to conditions: PRMT5, no cofactor; read-out: No Cofactor/rel IC50. The source says: Table 1 indicates IC50 values (μM) against PRMT5 for exemplary compounds in the presence of SAM as cofactor, with no cofactor, and with MTA as cofactor, respectively (columns 4-6). […] Ki values can be calculated from the IC50 values as described in the Examples section. As detailed in the Examples section, for the assay performed in the presence of SAM, IC50=Ki×1.5 (Ki=IC50/1.5).

The target in test [3] is T1, PRMT5. Briefly: PRMT5 biochemical IC50 assay with MTA as cofactor. As to conditions: PRMT5, MTA as cofactor; read-out: MTA IC50.
In test [4] the test system is HAP1 MTAP-intact cell line. Put plainly: SDMA in-cell western assay, HAP1 MTAP-intact. The test is classed as cell-based. The note with it: HAP1 MTAP-intact, read-out: MTAP HAP1 intact IC50. The gist of the method:
(§1)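 Isogenic HAP1 pair: the MTAP-intact line expresses endogenous MTAP, and the deleted line is MTAP-null. Symmetric dimethylarginine was detected by in-cell western and IC50 values derived for each line.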

For test [5], the system named is HAP1 MTAP-deleted cell line. Briefly: SDMA in-cell western assay, HAP1 MTAP-deleted. The test is classed as cell-based. The note with it: for IC50: HAP1 MTAP-deleted, read-out: HAP1 MTAP deleted IC50; for MTAP intact/deleted ratio: IC50 ratio HAP1 MTAP-intact / HAP1 MTAP-deleted. Summed up:
as §1

Test [6] deals with HAP1 MTAP-deleted cell line. Put plainly: Viability assay, MTAP-deleted cell line. The test is classed as cell-based. As to conditions: Homo sapiens, HAP1, viability assay, MTAP-deleted cell line; read-out: HAP1 MTAP deleted viability. The source says:
Table 1 additionally indicates IC50 values in a viability assay for the MTAP-deleted cell line (column 10), indicating the effect of treatment with compound on cell survival.

[7] abbreviates: Homo sapiens, HAP1, SDMA in-cell western.

T1 sequence (O14744 whole entry): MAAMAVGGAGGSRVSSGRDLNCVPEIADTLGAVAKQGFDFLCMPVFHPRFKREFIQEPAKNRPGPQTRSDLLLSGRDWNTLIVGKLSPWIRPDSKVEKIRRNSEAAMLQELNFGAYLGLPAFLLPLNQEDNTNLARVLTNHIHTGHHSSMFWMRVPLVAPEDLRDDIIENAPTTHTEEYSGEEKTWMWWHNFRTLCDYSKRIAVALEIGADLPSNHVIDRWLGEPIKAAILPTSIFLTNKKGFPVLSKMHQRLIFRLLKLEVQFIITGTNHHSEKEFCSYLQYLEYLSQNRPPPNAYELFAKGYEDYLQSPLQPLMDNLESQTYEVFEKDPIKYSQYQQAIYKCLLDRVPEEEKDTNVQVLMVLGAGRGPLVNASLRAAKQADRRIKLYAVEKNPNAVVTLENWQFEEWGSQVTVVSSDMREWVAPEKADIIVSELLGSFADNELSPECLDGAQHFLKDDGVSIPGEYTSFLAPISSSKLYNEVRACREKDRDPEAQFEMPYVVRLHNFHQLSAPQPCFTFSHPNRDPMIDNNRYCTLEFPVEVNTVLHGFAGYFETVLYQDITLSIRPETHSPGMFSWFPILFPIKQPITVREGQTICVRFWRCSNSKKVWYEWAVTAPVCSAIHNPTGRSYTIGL
T1 sequence (Q9BQA1 whole entry partner): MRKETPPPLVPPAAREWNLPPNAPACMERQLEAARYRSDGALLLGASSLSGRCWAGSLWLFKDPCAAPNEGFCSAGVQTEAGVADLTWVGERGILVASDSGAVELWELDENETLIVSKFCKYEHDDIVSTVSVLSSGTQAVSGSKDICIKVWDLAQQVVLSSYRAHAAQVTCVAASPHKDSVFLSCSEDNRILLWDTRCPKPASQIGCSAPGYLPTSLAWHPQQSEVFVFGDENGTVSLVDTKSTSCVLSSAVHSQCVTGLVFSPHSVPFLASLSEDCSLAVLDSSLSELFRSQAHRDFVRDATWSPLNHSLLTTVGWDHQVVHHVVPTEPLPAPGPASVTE

For `Cc1cc([C@@H]2CC[C@@H](C)CN2C(=O)C(=O)Nc2cncc(C(N)=O)c2)cc(C)c1O` (single isomer, unassigned) [Compound 335], the IC50 is 50 to 500 nM in test [1]; 50 to 500 nM in test [2]; less than 50 nM in test [3]; greater than 1000 nM in test [4] (setting [7]); less than 100 nM in test [5] (setting [7]); 1000 to 10000 nM in test [6]. Moreover, the MTAP intact/deleted ratio entry in test [5] (SDMA in-cell western) is listed as “A (an IC50 ratio greater than or equal to 10 fold)”.

Take `Cc1cc(NC(=O)C(=O)N2C[C@H](C)C[C@@H](C)[C@H]2c2ccccc2)cnc1N` (single isomer, unassigned) [Compound 339]: the IC50 in test [1] was 50 to 500 nM; in test [2] it was 50 to 500 nM; in test [3], less than 50 nM; in test [4] (setting [7]), greater than 1000 nM; in test [5] (setting [7]) it was 100 to 1000 nM; in test [6], greater than 10000 nM. Further, in test [5] (SDMA in-cell western), the MTAP intact/deleted ratio entry is listed as “A (an IC50 ratio greater than or equal to 10 fold)”.

As to `Cc1cc(NC(=O)C(=O)N2CCCC[C@H]2C2CCCC2)cnc1N` (single isomer, unassigned) [Compound 340], the IC50 in test [1] was 50 to 500 nM; in test [2], 50 to 500 nM; in test [3] it was less than 50 nM; in test [4] (setting [7]), greater than 1000 nM; in test [5] (setting [7]) it was 100 to 1000 nM; in test [6] it was 1000 to 10000 nM. For the same compound, the MTAP intact/deleted ratio entry in test [5] (SDMA in-cell western) is on record as “A (an IC50 ratio greater than or equal to 10 fold)”.

Turning to `C[C@@H]1CC[C@@H](c2ccc3c(c2)C[C@H](C)O3)N(C(=O)C(=O)Nc2cncc(C(N)=O)c2)C1` (single isomer, unassigned) [Compound 345], the IC50 in test [1] was 50 to 500 nM; in test [2] it was 50 to 500 nM; in test [3], less than 50 nM; in test [4] (setting [7]), greater than 1000 nM; in test [5] (setting [7]), 100 to 1000 nM; in test [6], 1000 to 10000 nM. The MTAP intact/deleted ratio entry in test [5] (SDMA in-cell western) was “A (an IC50 ratio greater than or equal to 10 fold)”.

For the compound `CC(=O)N1CCC(c2cccc([C@@H]3CC[C@@H](C)CN3C(=O)C(=O)Nc3cncc(C(N)=O)c3)c2)CC1` (single isomer, unassigned) [Compound 346], the IC50 was 50 to 500 nM in test [1]; 50 to 500 nM in test [2]; less than 50 nM in test [3]; greater than 1000 nM in test [4] (setting [7]); 100 to 1000 nM in test [5] (setting [7]); 1000 to 10000 nM in test [6]. Moreover, the MTAP intact/deleted ratio entry in test [5] (SDMA in-cell western) is “A (an IC50 ratio greater than or equal to 10 fold)”.

On to `COc1ncc(NC(=O)C(=O)N2CCCCC2C2CCCCC2)cc1C(N)=O` (single isomer, unassigned) [Compound 347, 5-(2-(2-cyclohexylpiperidin-1-yl)-2-oxoacetamido)-2-methoxynicotinamide], for which the IC50 in test [1] is 50 to 500 nM; in test [2] it was 50 to 500 nM; in test [3], less than 50 nM; in test [4] (SDMA in-cell western), greater than 1000 nM; in test [5] (SDMA in-cell western) it was 100 to 1000 nM; in test [6], 1000 to 10000 nM. Besides, the MTAP intact/deleted ratio result in test [5] (SDMA in-cell western) is listed as “A (an IC50 ratio greater than or equal to 10 fold)”.

With `CNc1cccc([C@@H]2CC[C@@H](C)CN2C(=O)C(=O)Nc2cncc(C(N)=O)c2)c1` (single isomer, unassigned) [Compound 348], the IC50 in test [1] was 50 to 500 nM; in test [2] it was 50 to 500 nM; in test [3], less than 50 nM; in test [4] (setting [7]) it was greater than 1000 nM; in test [5] (setting [7]), less than 100 nM; in test [6] it was 1000 to 10000 nM. Besides, the MTAP intact/deleted ratio result in test [5] (SDMA in-cell western) was “A (an IC50 ratio greater than or equal to 10 fold)”.

For the compound `C[C@H]1CC[C@H](c2ccc(O)nc2)N(C(=O)C(=O)Nc2cncc(C(N)=O)c2)C1` (single isomer, unassigned) [Compound 350], the IC50 in test [1] was 50 to 500 nM; in test [2], 50 to 500 nM; in test [3] it was less than 50 nM; in test [4] (setting [7]), greater than 1000 nM; in test [5] (setting [7]), greater than 1000 nM; in test [6], greater than 10000 nM. Besides, in test [5] (SDMA in-cell western), the MTAP intact/deleted ratio entry is recorded as “C (an IC50 ratio of less than 3 fold)”.

For the compound `C[C@@H]1CC[C@@H](c2ccc(O)nc2)N(C(=O)C(=O)Nc2cncc(C(N)=O)c2)C1` (single isomer, unassigned) [Compound 351], the IC50 was greater than 500 nM in test [1]; greater than 500 nM in test [2]; greater than 500 nM in test [3]; greater than 1000 nM in test [4] (setting [7]); greater than 1000 nM in test [5] (setting [7]); greater than 10000 nM in test [6]. Moreover, in test [5] (SDMA in-cell western), the MTAP intact/deleted ratio entry is recorded as “C (an IC50 ratio of less than 3 fold)”.

In the case of `N#C[C@H]1CCN(C(=O)C(=O)Nc2cncc(C(N)=O)c2)[C@@H](c2ccccc2)C1` (single isomer, unassigned) [Compound 352], the IC50 was 50 to 500 nM in test [1]; 50 to 500 nM in test [2]; less than 50 nM in test [3]; greater than 1000 nM in test [4] (setting [7]); 100 to 1000 nM in test [5] (setting [7]); greater than 10000 nM in test [6]. The MTAP intact/deleted ratio entry in test [5] (SDMA in-cell western) is on record as “A (an IC50 ratio greater than or equal to 10 fold)”.

For the compound `N#C[C@@H]1CCN(C(=O)C(=O)Nc2cncc(C(N)=O)c2)[C@H](c2ccccc2)C1` (single isomer, unassigned) [Compound 353], the IC50 is greater than 500 nM in test [1]; greater than 500 nM in test [2]; greater than 500 nM in test [3]; greater than 1000 nM in test [4] (setting [7]); greater than 1000 nM in test [5] (setting [7]); greater than 10000 nM in test [6]. In addition, the MTAP intact/deleted ratio entry in test [5] (SDMA in-cell western) was “C (an IC50 ratio of less than 3 fold)”.

In the case of `C[C@H]1CC[C@H](c2ccc(O)c(F)c2)N(C(=O)C(=O)Nc2cncc(C(N)=O)c2)C1` (single isomer, unassigned) [Compound 354], the IC50 in test [1] is 50 to 500 nM; in test [2], less than 50 nM; in test [3] it was less than 50 nM; in test [4] (setting [7]) it was 100 to 1000 nM; in test [5] (setting [7]), less than 100 nM; in test [6], less than 1000 nM. In addition, the MTAP intact/deleted ratio entry in test [5] (SDMA in-cell western) is “A (an IC50 ratio greater than or equal to 10 fold)”.

`C[C@@H]1CC[C@@H](c2ccc(O)c(F)c2)N(C(=O)C(=O)Nc2cncc(C(N)=O)c2)C1` (single isomer, unassigned) [Compound 355]: the IC50 in test [1] is greater than 500 nM; in test [2] it was greater than 500 nM; in test [3], greater than 500 nM; in test [4] (setting [7]) it was greater than 1000 nM; in test [5] (setting [7]), greater than 1000 nM; in test [6], greater than 10000 nM. Also, the MTAP intact/deleted ratio entry in test [5] (SDMA in-cell western) is “C (an IC50 ratio of less than 3 fold)”.

With `CNc1cccc([C@H]2CCCCN2C(=O)C(=O)Nc2cnc(N)c(C)c2)c1` (single isomer, unassigned) [Compound 356], the IC50 in test [1] was 50 to 500 nM; in test [2], 50 to 500 nM; in test [3], less than 50 nM; in test [4] (setting [7]), greater than 1000 nM; in test [5] (setting [7]), less than 100 nM; in test [6] it was 1000 to 10000 nM. Further, the MTAP intact/deleted ratio entry in test [5] (SDMA in-cell western) is listed as “A (an IC50 ratio greater than or equal to 10 fold)”.

Turning to `CNc1cccc([C@@H]2CCCCN2C(=O)C(=O)Nc2cnc(N)c(C)c2)c1` (single isomer, unassigned) [Compound 357], the IC50 in test [1] was 50 to 500 nM; in test [2], greater than 500 nM; in test [3], 50 to 500 nM; in test [4] (setting [7]) it was greater than 1000 nM; in test [5] (setting [7]), 100 to 1000 nM; in test [6], greater than 10000 nM. Besides, in test [5] (SDMA in-cell western), the MTAP intact/deleted ratio result was “A (an IC50 ratio greater than or equal to 10 fold)”.

Consider `CN(C)c1cccc([C@@H]2CCCCN2C(=O)C(=O)Nc2cncc(C(N)=O)c2)c1` (single isomer, unassigned) [Compound 365], for which the IC50 is 50 to 500 nM in test [1]; 50 to 500 nM in test [2]; less than 50 nM in test [3]; greater than 1000 nM in test [4] (setting [7]); less than 100 nM in test [5] (setting [7]); 1000 to 10000 nM in test [6]. Also, the MTAP intact/deleted ratio entry in test [5] (SDMA in-cell western) is “A (an IC50 ratio greater than or equal to 10 fold)”.

Take `CN(C)c1cccc([C@H]2CCCCN2C(=O)C(=O)Nc2cncc(C(N)=O)c2)c1` (single isomer, unassigned) [Compound 366]: the IC50 in test [1] is greater than 500 nM; in test [2], greater than 500 nM; in test [3], 50 to 500 nM; in test [4] (setting [7]), greater than 1000 nM; in test [5] (setting [7]) it was greater than 1000 nM; in test [6] it was greater than 10000 nM. In test [5] (SDMA in-cell western), the MTAP intact/deleted ratio result was “C (an IC50 ratio of less than 3 fold)”.

Take `Cc1c(NC(=O)C(=O)N2C[C@H](C)CC[C@H]2c2ccccc2)cnc(N)c1C` (single isomer, unassigned) [Compound 367]: the IC50 in test [1] is greater than 500 nM; in test [2], greater than 500 nM; in test [3], 50 to 500 nM; in test [4] (setting [7]), greater than 1000 nM; in test [5] (setting [7]), greater than 1000 nM; in test [6], greater than 10000 nM. Besides, the MTAP intact/deleted ratio entry in test [5] (SDMA in-cell western) is reported as “C (an IC50 ratio of less than 3 fold)”.
